According to patent US20250101436A1, “APTAMERS AND SMALL MOLECULE LIGANDS” (MeiraGTx UK II Limited, priority 2021, published 2025):

Experiments:
N5-12G6 riboswitch = experiment: Firefly luciferase assay, N5-12G6 riboswitch in HEK293 cells; conditions: for regulation of luciferase expression (FIG. 4e): 12G6 riboswitch, HEK293; for fold induction at 25 µM: HEK293, read-out: Fold induction 25 μM (HEK), 12G6 riboswitch, luciferase, HEK293, 25 μM; for fold induction at 2 µM: HEK293, read-out: Fold induction 2 μM (HEK), 12G6 riboswitch, luciferase, HEK293, 2 μM
Description: Transfection: 3.5×10^4 human embryonic kidney (HEK) 293 cells were plated in a 96-well flat bottom plate the day before transfection. Plasmid DNA (500 ng) was added to a tube or a 96-well U-bottom plate. Separately, TransIT-293 reagent (Mirus; 1.4 L) was added to 50 μL Optimum I media (Life Technologies) and allowed to sit for 5 minutes at room temperature (RT). Then, 50 μL of this diluted transfection reagent was added to the DNA, mixed, and incubated at RT for 20 min. Finally, 7 μL of this solution was added to a well of cells in the 96-well plate. Four hours after transfection, medium containing transfection solution was replaced by medium with either TPP or fursultiamine as aptamer ligands.
Firefly luciferase assay of cultured cells: Twenty-four hours after media change, plates were removed from the incubator, and equilibrated to RT for several minutes on a lab bench, then aspirated. Glo-lysis buffer (Promega, 100 μL, RT) was added, and the plates allowed to remain at RT for at least 5 minutes. Then, the well contents were mixed by 50 μL trituration, and 20 μL of each sample was mixed with 20 μL of bright-glo reagent (Promega) that had been diluted to 10% in glo-lysis buffer. 96 wells were spaced on an opaque white 384-well plate. Following a 5 min incubation at RT, luminescence was measured using a Tecan machine with 500 ms read time. The luciferase activity was expressed as mean arbitrary light units (ALU)±S.D., and fold induction was calculated as the quotient of the luciferase activity obtained from cells with TPP or analog compound treatment divided by the luciferase activity obtained from cells without TPP or analog compound treatment.

[1] = tested on: luciferase gene expression in HEK 293 cells in response to Comp. 004; experiment: Screen of riboswitch constructs with 12C6-1 variant aptamers (libraries N1-N5) against Comp. 004, luciferase in HEK 293 cells; format: cell-based, human; conditions: library N5 variant aptamers (L5, X16-X21 randomized) of 12C6-1 in riboswitch constructs; in response to Comp. 004 treatment; HEK 293 cells
In short: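 Riboswitch constructs carrying 12C6-1 aptamer variants, randomized in J2-4, J2-3/J3-3a/J3a-2/P3, L3a, J4-5/J5-4/P4 or L5 regions (libraries N1-N5), cloned into an intron-exon-intron cassette driving luciferase. Screened in HEK 293 cells with 25 µM Comp. 004; read-out is fold induction of gene expression versus parent Luci-12C6-1.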

| Molecule | regulation of luciferase expression (FIG. 4e) (N5-12G6 riboswitch) | fold induction at 25 µM (N5-12G6 riboswitch; Homo sapiens) | Fold (induction of luciferase gene expression) [1] | also measured |
| --- | --- | --- | --- | --- |
| Fc1cc(CNc2cnccc2N2CCNCC2)cc2nccnc12 [compound 012, N-((8-Fluoroquinoxalin-6-yl)methyl)-4-(piperazin-1-yl)pyridin-3-amine] | regulate expression in a dose-dependent fashion | 383 | – | – |
| Clc1cc2nccnc2cc1CNc1cnccc1N1CCNCC1 [compound 013, N-((7-Chloroquinoxalin-6-yl)methyl)-4-(piperazin-1-yl)pyridin-3-amine] | regulate expression in a dose-dependent fashion | 314 | – | – |
| c1cc(N2CCCNCC2)c(NCc2ccc3nccnc3c2)cn1 [compound 014, 4-(1,4-Diazepan-1-yl)-N-(quinoxalin-6-ylmethyl)pyridin-3-amine] | regulate expression in a dose-dependent fashion | 251 | – | – |
| CC1CNCCN1c1ccncc1NCc1ccc2nccnc2c1 (stereo not drawn) [compound 015, 4-(2-Methylpiperazin-1-yl)-N-(quinoxalin-6-ylmethyl)pyridin-3-amine] | regulate expression in a dose-dependent fashion | 329 | – | – |
| CC1CN(c2ccncc2NCc2ccc3nccnc3c2)CCN1 (stereo not drawn) [compound 016, 4-(3-Methylpiperazin-1-yl)-N-(quinoxalin-6-ylmethyl)pyridin-3-amine] | regulate expression in a dose-dependent fashion | 287 | – | – |
| c1cc(C2CCNCC2)c(NCc2ccc3nccnc3c2)cn1 [compound 017, 4-(Piperidin-4-yl)-N-(quinoxalin-6-ylmethyl)pyridin-3-amine] | – | 130 | – | – |
| c1cc(OC2CCNC2)c(NCc2ccc3nccnc3c2)cn1 (stereo not drawn) [compound 018, 4-(Pyrrolidin-3-yloxy)-N-(quinoxalin-6-ylmethyl)pyridin-3-amine] | regulate expression in a dose-dependent fashion | 286 | – | – |
| Clc1cncc(NCc2ccc3nccnc3c2)c1N1CCNCC1 [compound 019, 5-Chloro-4-(piperazin-1-yl)-N-(quinoxalin-6-ylmethyl)pyridin-3-amine] | regulate expression in a dose-dependent fashion | 453 | – | fold induction at 2 µM (N5-12G6 riboswitch; Homo sapiens): 60.2 |
| C[C@@H]1CNCCN1c1ccncc1NCc1ccc2nccnc2c1 [compound 020, (R)-4-(2-Methylpiperazin-1-yl)-N-(quinoxalin-6-ylmethyl)pyridin-3-amine] | – | – | – | fold induction at 2 µM (N5-12G6 riboswitch; Homo sapiens): 31.2; fold induction at 3.3 µM (N5-12G6 riboswitch; Homo sapiens, HEK293, read-out: Fold induction 3.3 μM (HEK), 12G6 riboswitch, luciferase, HEK293, 3.3 μM): 52 |
| N5_13D1 (CTGGGGAGTCCT; chemistry not given here) | – | – | 722.9 fold | – |
| N5_13D5 (CTGGGGAGTCCT; chemistry not given here) | – | – | 749.4 fold | – |
| N5_13E8 (CTGGGGAGTCCT; chemistry not given here) | – | – | 2096.6 fold | – |
| N5_13G5 (CTGGGGAGTCCT; chemistry not given here) | – | – | 1198.5 fold | – |
| N5_13G10 (CTGGGGAGTCCT; chemistry not given here) | – | – | 1604.0 fold | – |
| N5_13G12 (CTGGGGAGTCCT; chemistry not given here) | – | – | 1199.4 fold | – |
| N5_13H3 (CTGGGGAGTCCT; chemistry not given here) | – | – | 1288.5 fold | – |
| N5_14B9 (CTGGGGAGTCCT; chemistry not given here) | – | – | 897.5 fold | – |
| N5_14B10 (CTGGGGAGTCCT; chemistry not given here) | – | – | 1133.0 fold | – |
| N5_14D10 (CTGGGGAGTCCT; chemistry not given here) | – | – | 950.5 fold | – |
| N5_14G11 (CTGGGGAGTCCT; chemistry not given here) | – | – | 1775.3 fold | – |
| N5_14H11 (CTGGGGAGTCCT; chemistry not given here) | – | – | 918.4 fold | – |
